Results taken from patent US4708871A, “Antigenically active amino acid sequences” (priority 1983, dated 1987).
Entries after “also recorded” stand apart in the source; their conditions may differ. No end group written: not given here.

Experiments:
Type in all cases: binding, rabbit
[1] = tested on: anti-intact virus particle, type O1 antisera
[2] = tested on: anti-virus-subunit, type O1 antiserum
[3] = tested on: anti-intact virus particle, type C1 antiserum
[4] = tested on: anti-VP1, type O1 antiserum

Substance | Change of activity, absorbed compared to non-absorbed serum [1] | Reactive antibody in anti-intact virus serum after absorption with purified virus (ELISA) [1] | Reactive antibody in whole anti-intact virus sera (ELISA) [1] | Reactive antibody in anti-subunit sera (ELISA) [2] | Reaction with antiserum to type C1 (ELISA) [3] | Activity with another anti-VP1 serum (ELISA) [4] | Reactive antibody in anti-VP1 sera (ELISA) [4]
DLQVLA [compound 147] | loss of activity | absent | present; also recorded: reacted | not observed | did not react at all | showed nothing | only weakly present
GDLQVL [GDLQVL] | loss of activity | absent | present; also recorded: reacted | not observed | did not react at all | showed nothing | only weakly present
